Measured values published in patent publication US6355799B1, “Substituted benzene compounds, process for their preparation, and herbicidal and defoliant compositions containing them” (ISK Americas Incorporated, priority 1997, dated 2002).

Key:
Format in all cases: in vivo
[1] = system: redroot pigweed (Amaranthus retroflexus, AMARE); assay: Pre-emerge test, greenhouse herbicide activity screening; settings: rated 14 days after application, 0 = no damage, 100 = complete death
Procedure, shortened: (§1)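 Compounds in acetone were track-sprayed at 187 l/ha, 15–1000 g ai/ha, onto sandy loam pots. Pre-emerge seeds were sown one day before spraying, with surface watering afterwards. Post-emerge plants were at the 2–3 leaf stage and sprayed with 0.25% v/v non-ionic surfactant. Injury was rated 0–100 at 14 days.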

[2] = system: sicklepod (Cassia obtusifolia, CASOB); assay: Post-emerge test, greenhouse herbicide activity screening; settings: post-emerge, 14 days after application, rating scale 0-100
Procedure, shortened: (§2)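 Applied at 15–1000 g ai/ha from acetone in 187 l/ha spray volume. Post-emergence applications included 0.25% v/v non-ionic surfactant and reached plants sown 8–21 days before. Pre-emergence applications were incorporated by surface watering. Efficacy or crop damage was rated on a 0–100 scale after 14 days.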

[3] = system: redroot pigweed (Amaranthus retroflexus, AMARE); assay: as above; settings: post-emerge, 14 days after application, rating scale 0-100
Procedure, shortened: as §2

[4] = system: large crabgrass (Digitaria sanguinalis, DIGSA); assay: as above; settings: post-emerge, 14 days after application, rating scale 0-100
Procedure, shortened: as §2

[5] = system: lambsquarters (Chenopodium album, CHEAL); assay: as above; settings: post-emerge, 14 days after application, rating scale 0-100
Procedure, shortened: as §2

[6] = system: johnsongrass (Sorghum halepense, SORHA); assay: as above; settings: post-emerge, 14 days after application, rating scale 0-100
Procedure, shortened: as §2

[7] = system: velvetleaf (Abutilon theophrasti, ABUTH); assay: as above; settings: post-emerge, 14 days after application, rating scale 0-100
Procedure, shortened: as §2

[8] = system: barnyardgrass (Echinochloa crus-galli, ECHCG); assay: as above; settings: post-emerge, 14 days after application, rating scale 0-100
Procedure, shortened: as §2

[9] = system: ivyleaf morningglory (Ipomoea hederacea, IPOHE); assay: as above; settings: post-emerge, 14 days after application, rating scale 0-100
Procedure, shortened: as §2

[10] = system: green foxtail (Setaria viridis, SETVI); assay: as above; settings: post-emerge, 14 days after application, rating scale 0-100
Procedure, shortened: as §2

[11] = system: field corn (Zea mays L., var. Dekalb 535, CORN); assay: Pre-emerge test, crop safety; settings: rated 14 days after application, 0 = no damage, 100 = complete death
Procedure, shortened: as §1

[12] = system: upland rice (Oryza sp., var. Tebonnet, RICE); assay: Pre-emerge test, crop safety; settings: rated 14 days after application, 0 = no damage, 100 = complete death
Procedure, shortened: as §1

[13] = system: sicklepod (Cassia obtusifolia, CASOB); assay: Pre-emerge test, greenhouse herbicide activity screening; settings: rated 14 days after application, 0 = no damage, 100 = complete death
Procedure, shortened: (§3)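 Sandy loam pots; pre-emerge: sown 1 d pre-spray, surface-watered after, then bottom-watered. Post-emerge: sown 8–21 d before, 2–3 leaf stage, + 0.25% v/v NIS, bottom-watered. Acetone, 187 l/ha track spray, 15–1000 g ai/ha. 0–100 injury score, day 14.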

[14] = system: large crabgrass (Digitaria sanguinalis, DIGSA); assay: as above; settings: rated 14 days after application, 0 = no damage, 100 = complete death
Procedure, shortened: as §3

[15] = system: lambsquarters (Chenopodium album, CHEAL); assay: as above; settings: rated 14 days after application, 0 = no damage, 100 = complete death
Procedure, shortened: as §3

[16] = system: johnsongrass (Sorghum halepense, SORHA); assay: as above; settings: rated 14 days after application, 0 = no damage, 100 = complete death
Procedure, shortened: as §3

[17] = system: velvetleaf (Abutilon theophrasti, ABUTH); assay: as above; settings: rated 14 days after application, 0 = no damage, 100 = complete death
Procedure, shortened: as §3

[18] = system: barnyardgrass (Echinochloa crus-galli, ECHCG); assay: as above; settings: rated 14 days after application, 0 = no damage, 100 = complete death
Procedure, shortened: as §3

[19] = system: ivyleaf morningglory (Ipomoea hederacea, IPOHE); assay: as above; settings: rated 14 days after application, 0 = no damage, 100 = complete death
Procedure, shortened: as §3

[20] = system: green foxtail (Setaria viridis, SETVI); assay: as above; settings: rated 14 days after application, 0 = no damage, 100 = complete death
Procedure, shortened: as §3

[21] = system: field corn (Zea mays L., var. Dekalb 535, CORN); assay: Post-emerge test, crop safety; settings: post-emerge, 14 days after application, rating scale 0-100
Procedure, shortened: as §3

[22] = system: upland rice (Oryza sp., var. Tebonnet, RICE); assay: Post-emerge test, crop safety; settings: post-emerge, 14 days after application, rating scale 0-100
Procedure, shortened: as §3

Compound: COc1c(Cl)cc(F)c(-n2c(=O)cc(C(F)(F)F)n(C)c2=O)c1NC(=O)c1ccc2ccccc2c1 [2-75]
- Pre-emerge Herbicidal Activity, phytotoxicity rating (0-100), AMARE ([1]; 63 g ai/ha): 100
- Pre-emerge Herbicidal Activity, phytotoxicity rating (0-100), AMARE ([1]; 250 g ai/ha): 100
- phytotoxicity rating CASOB ([2]; 63 g ai/ha): 100
- phytotoxicity rating CASOB ([2]; 250 g ai/ha): 100
- phytotoxicity rating AMARE ([3]; 63 g ai/ha): 100
- phytotoxicity rating AMARE ([3]; 250 g ai/ha): 100
- phytotoxicity rating DIGSA ([4]; 63 g ai/ha): 0
- phytotoxicity rating DIGSA ([4]; 250 g ai/ha): 20
- phytotoxicity rating CHEAL ([5]; 63 g ai/ha): 100
- phytotoxicity rating CHEAL ([5]; 250 g ai/ha): 100
- phytotoxicity rating SORHA ([6]; 63 g ai/ha): 20
- phytotoxicity rating SORHA ([6]; 250 g ai/ha): 40
- phytotoxicity rating ABUTH ([7]; 63 g ai/ha): 100
- phytotoxicity rating ABUTH ([7]; 250 g ai/ha): 100
- phytotoxicity rating ECHCG ([8]; 63 g ai/ha): 10
- phytotoxicity rating ECHCG ([8]; 250 g ai/ha): 50
- phytotoxicity rating IPOHE ([9]; 63 g ai/ha): 100
- phytotoxicity rating IPOHE ([9]; 250 g ai/ha): 100
- phytotoxicity rating SETVI ([10]; 63 g ai/ha): 30
- phytotoxicity rating SETVI ([10]; 250 g ai/ha): 80
- Pre-emerge phytotoxicity rating (0-100), crop damage, CORN ([11]; 63 g ai/ha): 0
- Pre-emerge phytotoxicity rating (0-100), crop damage, CORN ([11]; 250 g ai/ha): 0
- Pre-emerge phytotoxicity rating (0-100), crop damage, RICE ([12]; 63 g ai/ha): 30
- Pre-emerge phytotoxicity rating (0-100), crop damage, RICE ([12]; 250 g ai/ha): 80
- Pre-emerge Herbicidal Activity, phytotoxicity rating (0-100), CASOB ([13]; 63 g ai/ha): 100
- Pre-emerge Herbicidal Activity, phytotoxicity rating (0-100), CASOB ([13]; 250 g ai/ha): 100
- Pre-emerge Herbicidal Activity, phytotoxicity rating (0-100), DIGSA ([14]; 63 g ai/ha): 70
- Pre-emerge Herbicidal Activity, phytotoxicity rating (0-100), DIGSA ([14]; 250 g ai/ha): 100
- Pre-emerge Herbicidal Activity, phytotoxicity rating (0-100), CHEAL ([15]; 63 g ai/ha): 100
- Pre-emerge Herbicidal Activity, phytotoxicity rating (0-100), CHEAL ([15]; 250 g ai/ha): 100
- Pre-emerge Herbicidal Activity, phytotoxicity rating (0-100), SORHA ([16]; 63 g ai/ha): 20
- Pre-emerge Herbicidal Activity, phytotoxicity rating (0-100), SORHA ([16]; 250 g ai/ha): 60
- Pre-emerge Herbicidal Activity, phytotoxicity rating (0-100), ABUTH ([17]; 63 g ai/ha): 100
- Pre-emerge Herbicidal Activity, phytotoxicity rating (0-100), ABUTH ([17]; 250 g ai/ha): 100
- Pre-emerge Herbicidal Activity, phytotoxicity rating (0-100), ECHCG ([18]; 63 g ai/ha): 20
- Pre-emerge Herbicidal Activity, phytotoxicity rating (0-100), ECHCG ([18]; 250 g ai/ha): 100
- Pre-emerge Herbicidal Activity, phytotoxicity rating (0-100), IPOHE ([19]; 63 g ai/ha): 20
- Pre-emerge Herbicidal Activity, phytotoxicity rating (0-100), IPOHE ([19]; 250 g ai/ha): 60
- Pre-emerge Herbicidal Activity, phytotoxicity rating (0-100), SETVI ([20]; 63 g ai/ha): 100
- Pre-emerge Herbicidal Activity, phytotoxicity rating (0-100), SETVI ([20]; 250 g ai/ha): 100
- phytotoxicity rating CORN ([21]; 63 g ai/ha): 10
- phytotoxicity rating CORN ([21]; 250 g ai/ha): 15
- phytotoxicity rating RICE ([22]; 63 g ai/ha): 70
- phytotoxicity rating RICE ([22]; 250 g ai/ha): 80
